Assay results taken from patent US10015966B2, “Fungicidal pyrazole mixtures” (E I DU PONT DE NEMOURS AND COMPANY, priority 2012, dated 2018).
Read-outs that look alike come from different tables or passages of the source. Marks after values point to notes of the source that are not given here.

Columns and labels:
Format in all cases: in vivo
[1] = test system: Puccinia recondita f. sp. tritici; experiment: Test G: curative spray on inoculated wheat seedlings, wheat leaf rust, visual disease rating; conditions: 200 ppm test suspension
Procedure: General protocol for preparing test suspensions for Tests A-I: the test compounds were first dissolved in acetone in an amount equal to 3% of the final volume and then suspended at the desired concentration (in ppm) in acetone and purified water (50/50 mix by volume) containing 250 ppm of the surfactant Trem® 014 (polyhydric alcohol esters). The resulting test suspensions were then used in Tests A-I. Each test was conducted in triplicate, and the results were averaged. Spraying a 200 ppm test suspension to the point of run-off on the test plants was the equivalent of a rate of about 800 g/ha. Unless otherwise indicated, the rating values indicate a 200 ppm test suspension was used. (An asterisk “*” next to the rating value indicates a 40 ppm test suspension was used.) Wheat seedlings were inoculated with a spore suspension of Puccinia recondita f. sp. tritici (the causal agent of wheat leaf rust) and incubated in a saturated atmosphere at 20° C. for 24 h, and then moved to a growth chamber at 20° C. for 2 days. At the end of this time the test suspension was sprayed to the point of run-off, and then the seedlings were moved to a growth chamber at 20° C. for 4 days after which time visual disease ratings were made. […]

Alternaria solani = experiment: Test B: preventive spray on tomato seedlings, tomato early blight, visual disease rating; conditions: 200 ppm test suspension
Procedure: General protocol for preparing test suspensions for Tests A-I: the test compounds were first dissolved in acetone in an amount equal to 3% of the final volume and then suspended at the desired concentration (in ppm) in acetone and purified water (50/50 mix by volume) containing 250 ppm of the surfactant Trem® 014 (polyhydric alcohol esters). The resulting test suspensions were then used in Tests A-I. Each test was conducted in triplicate, and the results were averaged. Spraying a 200 ppm test suspension to the point of run-off on the test plants was the equivalent of a rate of about 800 g/ha. Unless otherwise indicated, the rating values indicate a 200 ppm test suspension was used. (An asterisk “*” next to the rating value indicates a 40 ppm test suspension was used.) The test suspension was sprayed to the point of run-off on tomato seedlings. The following day the seedlings were inoculated with a spore suspension of Alternaria solani (the causal agent of tomato early blight) and incubated in a saturated atmosphere at 27° C. for 48 h, and then moved to a growth chamber at 20° C. for 5 days, after which time visual disease ratings were made. Results for Tests A-I are given in Table A. In the Table, a rating of 100 indicates 100% disease control and a rating of 0 indicates no disease control (relative to the controls). A hyphen (-) indicates no test results.

Rhizoctonia solani = experiment: Test D: preventive spray on creeping bent grass seedlings, turf brown patch, disease rating; conditions: 200 ppm test suspension
Procedure: General protocol for preparing test suspensions for Tests A-I: the test compounds were first dissolved in acetone in an amount equal to 3% of the final volume and then suspended at the desired concentration (in ppm) in acetone and purified water (50/50 mix by volume) containing 250 ppm of the surfactant Trem® 014 (polyhydric alcohol esters). The resulting test suspensions were then used in Tests A-I. Each test was conducted in triplicate, and the results were averaged. Spraying a 200 ppm test suspension to the point of run-off on the test plants was the equivalent of a rate of about 800 g/ha. Unless otherwise indicated, the rating values indicate a 200 ppm test suspension was used. (An asterisk “*” next to the rating value indicates a 40 ppm test suspension was used.) The test suspension was sprayed to the point of run-off on creeping bent grass (Agrostis sp.) seedlings. The following day the seedlings were inoculated with a bran and mycelial slurry of Rhizoctonia solani (the causal agent of turf brown patch) and incubated in a saturated atmosphere at 27° C. for 48 h, and then moved to a growth chamber at 27° C. for 3 days, after which time disease ratings were made. Results for Tests A-I are given in Table A. In the Table, a rating of 100 indicates 100% disease control and a rating of 0 indicates no disease control (relative to the controls). A hyphen (-) indicates no test results.

Phytophthora infestans = conditions: tomato late blight
[2] = Single oral dose pharmacokinetics in rats, plasma and fat analysed by LC/MS (fat:plasma ratio); conditions: single dose via oral gavage, compared to corresponding compounds with a nonhydrogen substituent at the para position of the phenyl ring connected to R^1 and R^2
Procedure: The pharmacokinetic properties of compounds of Formula 1 can be measured using a wide variety of assay protocols known in the science of pharmacology. In one illustrative method involving a single oral dose, three male and three female rats receive a single dose of a test substance via oral gavage. Approximately 0.25 mL of blood is collected via tail vein immediately prior to dosing, and then at 0.25, 0.5, 1, 2, 4, 8, 12, 24 h and every 24 h thereafter until sacrifice. At sacrifice, fat is also collected to determine the fat:plasma ratio at sacrifice. Blood is collected into tubes that contain ethylenediaminetetracetic acid (EDTA) and centrifuged at 2500×g in order to separate plasma from blood cells. The plasma is then extracted by protein precipitation using, for example, acetonitrile and a protein precipitation plate (e.g., Strata Impact Protein Precipitation Plate, part number CEO-7565 of Phenomenex, Torrance, Calif., U.S.A.) following directions provided for the plate. Alternatively, the plasma is extracted just with acetonitrile, vortexed (i.e. mixed using a vortex mixer), and centrifuged to pellet the proteins. After removal of the proteins, the plasma is analyzed for parent compound and/or metabolites by liquid chromatography-mass spectrometry (LC/MS). The fat is homogenized and extracted by an organic solvent such as acetonitrile. The extract is then analyzed for parent compound and/or metabolites by LC/MS. The plasma pharmacokinetic data is then analyzed using nonlinear modeling software (e.g., WinNonlin™ from Pharsight, Cary, N.C., U.S.A.) to determine half-life of the administered compound in plasma, the time after administration when the maximum plasma concentration is reached (Tmax), the maximum plasma concentration (Cmax) and the area under the plasma concentration curve (AUC). As analysis of fat requires rat sacrifice, fat data is obtained at single time points (i.e. the time of rat sacrifice). However, by using multiple rats sacrificed after different intervals from time of dosing, such parameters as Cmax for fat are determined.

Compound	Test G rating (% disease control) [1]	Test B rating (% disease control) (Alternaria solani)	Test D rating (% disease control) (Rhizoctonia solani)	Test C rating (% disease control) (Phytophthora infestans; 200 ppm test suspension, preventive spray)	distribution into fat [2]	Test C rating (% disease control) (Phytophthora infestans; asterisked rating: test suspension other than 200 ppm)
Cc1nn(C)c(Nc2c(F)cccc2F)c1-c1ccc(F)cc1Cl [Compound 2, 4-(2-chloro-4-fluorophenyl)-N-(2,6-difluorophenyl)-1,3-dimethyl-1H-pyrazol-5-amine]	0%	100%				
Cc1nn(C)c(Nc2ccccc2F)c1-c1ccc(F)cc1Cl [Compound 1, 4-(2-chloro-4-fluorophenyl)-N-(2-fluorophenyl)-1,3-dimethyl-1H-pyrazol-5-amine]		93%	99%	0%		
Cc1nn(C)c(Nc2c(F)cccc2Cl)c1-c1ccc(F)cc1Cl [Compound 3, 4-(2-chloro-4-fluorophenyl)-N-(2-chloro-6-fluorophenyl)-1,3-dimethyl-1H-pyrazol-5-amine]	100%	100%			significantly diminished distribution into fat	0* %
